Measurements: ChEMBL document CHEMBL1821548, “Structure selectivity relationship studies of 17-cyclopropylmethyl-3,14β-dihydroxy-4,5α-epoxy-6β-[(4'-pyridyl)carboxamido]morphinan derivatives toward the development of the mu opioid receptor antagonists” (Bioorg Med Chem Lett, 2011)

How the values were obtained:
Mu-type opioid receptor [1] = target: T1, Mu-type opioid receptor (Homo sapiens, UniProt P35372); assay: Displacement of [3H]naloxone from mu opioid receptor expressed in CHO cells after 1 hr; assay type: cell-based
Mu-type opioid receptor [2] = target: T1, Mu-type opioid receptor; assay: Agonist activity against mu opioid receptor expressed in CHO cells assessed as stimulation of [35S]-GTPgammaS binding relative to DAMGO; assay type: functional, cell-based
[3] = Selectivity ratio of Ki for delta opioid receptor to Ki for mu opioid receptor
Mu-type opioid receptor [4] = target: T1, Mu-type opioid receptor; assay: Agonist activity against mu opioid receptor expressed in CHO cells assessed as stimulation of [35S]-GTPgammaS binding; assay type: functional, cell-based
[5] = target: Delta-type opioid receptor (Homo sapiens, UniProt P41143); assay: Displacement of [3H]-NTI from delta opioid receptor expressed in CHO cells after 1 hr; assay type: cell-based
[6] = target: Kappa-type opioid receptor (Homo sapiens, UniProt P41145); assay: Displacement of [3H]-norBNI from kappa opioid receptor expressed in CHO cells after 1 hr; assay type: cell-based
[7] = Selectivity ratio of Ki for kappa opioid receptor to Ki for mu opioid receptor
Mu-type opioid receptor [8] = target: T1, Mu-type opioid receptor; conditions: CHO; 100 nM
Description: Agonist activity against mu opioid receptor expressed in CHO cells assessed as stimulation of [35S]-GTPgammaS binding at 100 nM relative to DAMGO

T1 sequence (P35372 whole entry): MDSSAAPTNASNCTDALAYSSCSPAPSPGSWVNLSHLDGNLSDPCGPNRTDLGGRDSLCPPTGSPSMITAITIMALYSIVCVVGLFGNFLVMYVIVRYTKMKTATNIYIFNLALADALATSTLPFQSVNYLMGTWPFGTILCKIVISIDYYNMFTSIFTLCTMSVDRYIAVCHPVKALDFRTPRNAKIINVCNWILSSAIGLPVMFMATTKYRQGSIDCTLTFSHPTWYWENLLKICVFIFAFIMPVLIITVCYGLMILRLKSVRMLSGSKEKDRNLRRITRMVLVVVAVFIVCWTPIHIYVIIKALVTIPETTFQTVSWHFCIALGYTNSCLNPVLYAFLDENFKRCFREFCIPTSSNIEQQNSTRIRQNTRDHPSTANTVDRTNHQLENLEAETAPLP
Sequence of Kappa-type opioid receptor (P41145 whole entry): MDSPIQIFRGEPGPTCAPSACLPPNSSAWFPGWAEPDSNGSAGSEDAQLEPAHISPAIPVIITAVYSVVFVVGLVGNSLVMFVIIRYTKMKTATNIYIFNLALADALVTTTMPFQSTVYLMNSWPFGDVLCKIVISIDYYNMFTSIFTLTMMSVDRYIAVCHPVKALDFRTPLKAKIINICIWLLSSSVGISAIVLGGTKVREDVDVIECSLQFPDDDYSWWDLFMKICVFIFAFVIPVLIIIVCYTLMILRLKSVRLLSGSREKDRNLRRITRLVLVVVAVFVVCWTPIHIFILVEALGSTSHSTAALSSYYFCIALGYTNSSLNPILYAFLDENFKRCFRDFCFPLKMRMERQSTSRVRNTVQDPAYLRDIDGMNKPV
Sequence of Delta-type opioid receptor (P41143 whole entry): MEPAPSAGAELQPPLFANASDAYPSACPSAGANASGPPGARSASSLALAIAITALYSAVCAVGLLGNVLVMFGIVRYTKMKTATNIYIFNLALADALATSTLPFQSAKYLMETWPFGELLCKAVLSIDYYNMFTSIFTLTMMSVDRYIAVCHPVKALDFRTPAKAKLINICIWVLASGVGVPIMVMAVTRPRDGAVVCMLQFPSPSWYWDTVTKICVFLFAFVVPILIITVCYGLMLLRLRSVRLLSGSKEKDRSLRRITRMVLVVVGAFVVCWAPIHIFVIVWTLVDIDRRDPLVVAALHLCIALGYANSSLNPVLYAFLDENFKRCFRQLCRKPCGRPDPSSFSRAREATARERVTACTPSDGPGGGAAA

Row | Structure (SMILES) | Ki (Mu-type opioid receptor [1]) [nM] | Emax (Mu-type opioid receptor [2]) [%] | Ratio Ki [3] | EC50 (Mu-type opioid receptor [4]) [nM] | Ki [5] [nM] | Ki [6] [nM] | Ratio Ki [7] | Emax (Mu-type opioid receptor [8]) [%]
1 | O=C(N[C@@H]1CC[C@@]2(O)[C@H]3Cc4ccc(O)c5c4[C@@]2(CCN3CC2CC2)[C@H]1O5)c1ccnc(Br)c1 | 0.63 | 50.8 | 276 | 1.19 | 174 | 0.18 | 0.3 | –
2 | O=C(N[C@@H]1CC[C@@]2(O)[C@H]3Cc4ccc(O)c5c4[C@@]2(CCN3CC2CC2)[C@H]1O5)c1ccncc1Cl | 0.67 | 24.9 | 746 | 2.32 | 502 | 19.9 | 29.6 | –
3 | CN1CCC(C(=O)N[C@@H]2CC[C@@]3(O)[C@H]4Cc5ccc(O)c6c5[C@@]3(CCN4CC3CC3)[C@H]2O6)CC1 | 0.87 | 37.2 | 2970 | 5.08 | 2590 | 6.49 | 7.5 | –
4 | Cc1cc(C(=O)N[C@@H]2CC[C@@]3(O)[C@H]4Cc5ccc(O)c6c5[C@@]3(CCN4CC3CC3)[C@H]2O6)ccn1 | 0.39 | 43.3 | 232 | 1.13 | 90.1 | 0.58 | 1.5 | –
5 | O=C(N[C@@H]1CC[C@@]2(O)[C@H]3Cc4ccc(O)c5c4[C@@]2(CCN3CC2CC2)[C@H]1O5)c1ccncc1Br | 0.45 | 23.2 | 285 | 1.31 | 128 | 2.83 | 6.3 | –
6 | C[C@@H](O)[C@H](NC(=O)[C@H]1NC(=O)[C@H]([C@@H](C)O)NC(=O)[C@H](CCCNC(=N)N)NC(=O)[C@@H](Cc2c[nH]c3ccccc23)NC(=O)[C@H](Cc2ccc(O)cc2)NC(=O)[C@@H](NC(=O)[C@H]2Cc3ccccc3CN2)CSSC1(C)C)C(N)=O | – | – | – | – | – | – | – | 1.99
7 | O=C(N[C@@H]1CC[C@@]2(O)[C@H]3Cc4ccc(O)c5c4[C@@]2(CCN3CC2CC2)[C@H]1O5)c1ccnc(Cl)c1 | 0.1 | 58.2 | 6110 | 0.83 | 602 | 0.15 | 1.5 | –
8 | Cc1cnccc1C(=O)N[C@@H]1CC[C@@]2(O)[C@H]3Cc4ccc(O)c5c4[C@@]2(CCN3CC2CC2)[C@H]1O5 | 0.58 | 30.6 | 470 | 1.52 | 274 | 96.7 | 166 | –
9 | O=C(Cc1ccncc1)N[C@@H]1CC[C@@]2(O)[C@H]3Cc4ccc(O)c5c4[C@@]2(CCN3CC2CC2)[C@H]1O5 | 0.85 | 32.8 | 1020 | 2.32 | 866 | 9.01 | 10.6 | –
10 | O=C(CCc1ccncc1)N[C@@H]1CC[C@@]2(O)[C@H]3Cc4ccc(O)c5c4[C@@]2(CCN3CC2CC2)[C@H]1O5 | 0.57 | 22.6 | 516 | 1.46 | 294 | 1.65 | 2.9 | –
11 | O=C(CNC(=O)c1ccncc1)N[C@@H]1CC[C@@]2(O)[C@H]3Cc4ccc(O)c5c4[C@@]2(CCN3CC2CC2)[C@H]1O5 | 0.73 | 22.6 | – | 2.84 | 526 | 203 | – | –
